Data on one compound can be found in patent US20100160408A1, “VILDAGLIPTIN FOR TREATING GENERAL PERIPHERAL NEUROPATHIES” (priority 2004, published 2010).

The structures appear in SMILES notation.

The test system of assay [1] is aged rats. The assay is described as follows: Passive avoidance learning test in aged rats. As to conditions: repeated oral administration, vildagliptin 3 mg/kg and/or donepezil 0.3 mg/kg, test started on day 14 of treatment, versus control group. It counts as in vivo.
Text: (§1) The ameliorative effect of vildagliptin or the combined use of vildagliptin with the compounds having cholinesterase inhibitory activity on learning deficits is investigated in aged rats.
(§2) Methods Male (3 to 27 months old) rats of transgenic strain are used. The aged rats are divided into the following four groups (the active ingredient dosage can be adapted by the person skilled in the art).
(§3) 1) Control group: Repeated administration of placebo pill.
(§4) 2) Vildagliptin group: Repeated oral administration of vildagliptin 3 mg/kg.
(§5) Passive avoidance learning test is started on day 14 of treatment, and Morris water maze learning test on day 20 of treatment.
(§6) On each day of experiment, vildagliptin arid/or a cholinesterase inhibitor are administered 30 minutes and 1 hour, respectively, before initiation of the trial.
Passive Avoidance Learning: The passive avoidance learning test is performed using a chamber consisting of light and dark compartments. […] After a mouse moves to the dark compartment, the mouse is kept there for about 10 seconds with the door closed. One to two hours after the habituation trial, acquisition trial is performed. […]
In each trial, the latency from opening of the slide door until the animal moved to the dark compartment (step-through latency) is measured.
Assay [2] concerns aged rats. Nature of the assay: Morris water maze learning test in aged rats. The format is in vivo. Conditions: repeated oral administration, vildagliptin 3 mg/kg and/or donepezil 0.3 mg/kg, test started on day 20 of treatment, versus control group.
Text: as §1, §2, §3, §4, §5, §6
Morris Water Maze Learning Same animals used in the passive avoidance test are subjected for the water maze task. However, some rats can not swim well in the water tank, thus they are excluded in the water maze task.
In pretraining which is performed for swimming training and motivation for escaping from water, four trials are performed using a water bath, 80 cm in diameter, in a condition that the platform is visible. […]

`N#C[C@@H]1CCCN1C(=O)CNC12CC3CC(CC(O)(C3)C1)C2` [vildagliptin, (S)-1-[(3-hydroxy-1-adamantyl)amino]acetyl-2-cyano-pyrrolidine]: in the assay on aged rats [1], the “learning deficit in passive avoidance learning (step-through latency / avoidance time)” value is reported as “significant improvement of the learning deficit”. The “water maze learning deficit (latency to find platform submerged in the water)” value in the assay on aged rats [2] is on record as “significant improvement in water maze learning deficit”.
